Reference: patent EP0596284A2, “Antimycotic cosmetic and dermatological compositions containing fatty acid esters” (Beiersdorf Aktiengesellschaft, priority 1992, dated 1994)
Like-named read-outs stand apart in the source and are kept apart here.

Test system: Pityrosporum ovale
Assay: Agar diffusion test, inhibition zones around wells on selective agar plates
Assay type: cell-based
Conditions: for zone of inhibition at 0.5 % / zone of inhibition at 1 % / zone of inhibition at 5 % / zone of inhibition at 10 %: Malassezia furfur, 72 h, read-out: mittlerer Hemmhof-Durchmesser
Procedure: Testlösungen: • TY-Medium 10 g Trypton + 5 g Hefeextrakt + 10 g NaCI, aufgelöst in 1000 ml H20, gepuffert auf pH 7,4 , autoklaviert. • Testverbindung 1: Hexyllaurat • Testverbindung 2: Isopropylstearat • Testverbindung 3: Caprylsäure-/Caprinsäure-Triglycerid • Testverbindung 4: Glyceryllaurat
Pityrosporum ovale von drei Patienten mit Pityrosporum-Follikulitis, Pityriasis versicolor oder seborrhoischem Ekzem wurde in einer Mischung aus 50 % TY-Medium, 30 % Olivenöl und 20 % Tween 80 suspendiert. Die drei verschiedenen Hefestämme wurden in drei parallelen Ansätzen auf einer Selektivagarplatte für pathogene Pilze (Merck AG, Darmstadt) gleichmäßig ausgespatelt. Mit Hilfe steriler Korkbohrer wurden in jede Platte mehrere kreisrunde Vertiefungen gestanzt, in die Vertiefungen mit einem Durchmesser von 5 mm wurden jeweils 25 ul der Testlösungen gegeben. Die Testlösungen stellten 0,5 %-ige, 1,0 %- ige, 2,5 %-ige, 5,0 %-ige und 10,0 %-ige Lösungen der Testsubstanzen in Ethanol dar.
Nach dreistündiger Inkubation bei 37 C wurde das verdunstete Lösungsmittel durch je 25 ul Jojobaöl ersetzt und die Platten anschließend unter Beibehaltung der Wachstumsbedingungen drei Tage inkubiert. Während dieser Zeit diffundierten die Testsubstanzen in den die Vertiefungen umgebenden Nährboden.
Antimycotisch wirksame Testverbindungen zeigten nach dreitägiger Inkubation einen deutlichen konzentrischen Hemmhof um die Vertiefungen. Die Größe dieser Hemmhöfe, wiedergegeben in Tabelle 1, ist bei vergleichbarer Substanzkonzentration ein Maß für die antimycotische Wirksamkeit der Testverbindungen.

[1] = Konz. 0,5 % in Ethanol, 25 ul per 5 mm well, three patient strains, three days at 37 C
[2] = Konz. 1,0 % in Ethanol, 25 ul per 5 mm well, three patient strains, three days at 37 C
[3] = Konz. 5,0 % in Ethanol, 25 ul per 5 mm well, three patient strains, three days at 37 C
[4] = Konz. 10,0 % in Ethanol, 25 ul per 5 mm well, three patient strains, three days at 37 C

Row | Compound | zone of inhibition at 0.5 % [1] [mm] | zone of inhibition at 1 % [2] [mm] | zone of inhibition at 5 % [3] [mm] | zone of inhibition at 10 % [4] [mm] | also measured
1 | CCCCCCCCCCCC(=O)OCCCCCC [Testlösung 1, Hexyllaurat] | 14 | 15.5 | 18 | 20.7 | –
2 | CCCCCCCCCCCCCCCCCC(=O)OC(C)C [Testlösung 2, Isopropylstearat] | 10.7 | 14 | 18.7 | 20.7 | –
3 | CCCCCCCCCCCC(=O)OCC(O)CO (stereo not shown) [Testlösung 4, Glyceryllaurat] | – | – | – | – | zone of inhibition at 0.5 %: 11 mm; zone of inhibition at 1 %: 14 mm; zone of inhibition at 5 %: 16.5 mm; zone of inhibition at 10 %: 16.5 mm
4 | Caprylsäure-/Caprinsäure-Triglycerid [Testlösung 3] | – | – | – | – | mittlerer Hemmhof-Durchmesser [1]: 9,0 mm; mittlerer Hemmhof-Durchmesser [2]: 9,0 mm; mittlerer Hemmhof-Durchmesser [3]: 15,0 mm; mittlerer Hemmhof-Durchmesser [4]: 17,3 mm
